From ChEMBL document CHEMBL5678818, “Discovery of potent SOS1 inhibitors that block RAS activation via disruption of the RAS-SOS1 interaction” (Proc Natl Acad Sci U S A, 2019)

Columns and labels:
[1] = target: T1, Serine/threonine-protein kinase BRSK1 (Homo sapiens) (UniProt Q8TDC3); assay: Inhibition of BRSK1 (unknown origin) assessed as residual activity at 1000 nM by KINOMEscan analysis relative to control
T1 sequence (whole entry): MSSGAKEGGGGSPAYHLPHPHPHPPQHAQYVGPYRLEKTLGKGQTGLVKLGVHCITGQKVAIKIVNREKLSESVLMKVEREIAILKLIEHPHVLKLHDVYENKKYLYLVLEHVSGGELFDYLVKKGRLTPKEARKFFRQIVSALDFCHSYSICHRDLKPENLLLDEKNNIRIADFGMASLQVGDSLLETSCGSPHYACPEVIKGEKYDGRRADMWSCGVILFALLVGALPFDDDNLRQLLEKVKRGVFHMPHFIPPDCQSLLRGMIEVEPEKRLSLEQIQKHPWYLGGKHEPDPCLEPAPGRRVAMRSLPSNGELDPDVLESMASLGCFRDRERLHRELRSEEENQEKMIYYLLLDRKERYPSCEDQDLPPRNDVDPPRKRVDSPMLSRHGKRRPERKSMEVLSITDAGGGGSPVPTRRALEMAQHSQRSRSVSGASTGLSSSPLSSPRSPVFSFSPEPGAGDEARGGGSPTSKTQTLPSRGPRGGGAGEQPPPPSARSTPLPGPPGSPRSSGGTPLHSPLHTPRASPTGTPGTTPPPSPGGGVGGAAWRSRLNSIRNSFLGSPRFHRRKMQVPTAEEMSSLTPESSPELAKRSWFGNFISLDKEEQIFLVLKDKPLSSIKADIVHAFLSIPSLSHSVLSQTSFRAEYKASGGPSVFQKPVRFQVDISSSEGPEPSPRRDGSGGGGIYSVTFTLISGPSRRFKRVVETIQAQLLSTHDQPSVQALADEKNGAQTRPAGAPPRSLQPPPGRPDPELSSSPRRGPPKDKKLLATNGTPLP

[2] = target: T2, Serine/threonine-protein kinase DCLK2 (Homo sapiens) (UniProt Q8N568); assay: Inhibition of DCAMKL2 (unknown origin) assessed as residual activity at 1000 nM by KINOMEscan analysis relative to control
T2 sequence (whole entry): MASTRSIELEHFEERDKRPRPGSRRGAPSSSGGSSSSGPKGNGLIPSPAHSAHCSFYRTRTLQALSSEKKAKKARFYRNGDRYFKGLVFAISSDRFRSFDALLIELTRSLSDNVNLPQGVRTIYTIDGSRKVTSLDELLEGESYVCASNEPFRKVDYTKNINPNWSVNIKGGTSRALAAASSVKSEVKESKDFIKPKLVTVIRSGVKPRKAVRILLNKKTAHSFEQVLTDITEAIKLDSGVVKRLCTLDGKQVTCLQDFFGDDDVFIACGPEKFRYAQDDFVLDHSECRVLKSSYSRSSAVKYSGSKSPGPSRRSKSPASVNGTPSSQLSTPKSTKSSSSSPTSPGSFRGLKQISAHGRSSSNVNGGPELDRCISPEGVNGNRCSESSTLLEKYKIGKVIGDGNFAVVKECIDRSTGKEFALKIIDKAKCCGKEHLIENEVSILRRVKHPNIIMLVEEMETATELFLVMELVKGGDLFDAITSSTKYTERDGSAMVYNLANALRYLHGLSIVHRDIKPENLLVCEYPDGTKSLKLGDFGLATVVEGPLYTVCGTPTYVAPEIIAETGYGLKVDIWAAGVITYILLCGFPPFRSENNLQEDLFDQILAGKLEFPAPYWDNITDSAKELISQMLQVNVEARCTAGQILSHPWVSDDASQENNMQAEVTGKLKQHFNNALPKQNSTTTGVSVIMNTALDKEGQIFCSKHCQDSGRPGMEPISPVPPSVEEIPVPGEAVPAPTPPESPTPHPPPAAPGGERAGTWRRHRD

[3] = target: Receptor-type tyrosine-protein kinase FLT3 (Homo sapiens) (UniProt P36888); assay: Inhibition of FLT3 (unknown origin) assessed as residual activity at 1000 nM by KINOMEscan analysis relative to control
[4] = test system: Receptor-type tyrosine-protein kinase FLT3 (Homo sapiens), P36888 [K663Q]; assay: Inhibition of FLT3 K663Q mutant (unknown origin) assessed as residual activity at 1000 nM by KINOMEscan analysis relative to control
[5] = target: T3, Serine/threonine-protein kinase Nek11 (Homo sapiens) (UniProt Q8NG66); assay: Inhibition of NEK11 (unknown origin) assessed as residual activity at 1000 nM by KINOMEscan analysis relative to control
T3 sequence (whole entry): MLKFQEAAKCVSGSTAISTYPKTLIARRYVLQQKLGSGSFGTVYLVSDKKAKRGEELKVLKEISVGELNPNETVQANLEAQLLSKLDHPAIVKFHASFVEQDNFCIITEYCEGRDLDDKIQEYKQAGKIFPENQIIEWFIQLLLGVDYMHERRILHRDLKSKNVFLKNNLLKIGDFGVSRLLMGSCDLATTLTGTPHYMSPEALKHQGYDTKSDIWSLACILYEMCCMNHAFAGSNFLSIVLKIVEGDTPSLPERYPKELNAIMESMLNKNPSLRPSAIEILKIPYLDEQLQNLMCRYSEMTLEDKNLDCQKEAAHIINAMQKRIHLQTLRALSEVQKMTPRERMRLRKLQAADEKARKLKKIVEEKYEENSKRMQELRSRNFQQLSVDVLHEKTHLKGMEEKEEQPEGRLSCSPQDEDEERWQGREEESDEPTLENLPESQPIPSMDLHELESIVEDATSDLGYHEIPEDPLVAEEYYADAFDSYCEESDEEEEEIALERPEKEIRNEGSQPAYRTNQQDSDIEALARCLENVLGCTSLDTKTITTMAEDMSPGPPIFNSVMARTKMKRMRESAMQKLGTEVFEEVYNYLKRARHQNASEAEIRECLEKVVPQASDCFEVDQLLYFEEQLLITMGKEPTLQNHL

Row | Compound | Activity [1] [%] | Activity [2] [%] | Activity [3] [%] | Activity [4] [%] | Activity [5] [%]
1 | COc1cc2nc(C)nc(N[C@H](C)c3cccc(-c4cn[nH]c4)c3)c2cc1OC | 100 | 98 | 78 | 90 | 93
2 | COc1cc2ncnc(N[C@H](C)c3cccc4ccccc34)c2cc1OC | 100 | 100 | 93 | 96 | 81
